According to ChEMBL document CHEMBL1129627, “Nonlinear quantitative structure-activity relationship for the inhibition of dihydrofolate reductase by pyrimidines” (J Med Chem, 1996):

The compounds below were run against T1, Dihydrofolate reductase (Escherichia coli, UniProt P0ABQ4).
T1 sequence (P0ABQ4 whole entry): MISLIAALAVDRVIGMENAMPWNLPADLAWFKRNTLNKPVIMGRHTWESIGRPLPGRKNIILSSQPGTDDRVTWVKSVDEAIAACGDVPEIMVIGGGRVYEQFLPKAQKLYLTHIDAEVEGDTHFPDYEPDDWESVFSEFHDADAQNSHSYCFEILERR
Description: Negative logarithm of inhibition constant (-log Ki) against Dihydrofolate reductase in Escherichia coli

Ki	Structure (SMILES)
120 nM	CS(=O)(=O)Oc1cccc(CC2CN=C(N)N=C2N)c1 (stereo unspecified)
4.47 nM	COCCc1c(OC)cc(CC2CN=C(N)N=C2N)cc1OC (stereo unspecified)
15.8 nM	COc1ccc(CC2CN=C(N)N=C2N)cc1OS(C)(=O)=O (stereo unspecified)
251 nM	CS(=O)(=O)Oc1ccc(CC2CN=C(N)N=C2N)cc1 (stereo unspecified)
17 nM	COCCOc1ccc(CC2CN=C(N)N=C2N)cc1OC (stereo unspecified)
20.4 nM	COc1ccc(CC2CN=C(N)N=C2N)cc1C(F)(F)F (stereo unspecified)
145 nM	COc1ccc(CC2CN=C(N)N=C2N)cc1O (stereo unspecified)
2.69 nM	COc1cc(CC2CN=C(N)N=C2N)cc(OC)c1C (stereo unspecified)
107 nM	CC(=O)Nc1ccc(CC2CN=C(N)N=C2N)cc1[N+](=O)[O-] (stereo unspecified)
11.5 nM	COc1cc(CC2CN=C(N)N=C2N)ccc1OS(C)(=O)=O (stereo unspecified)
69.2 nM	COCCCCCCCOc1cc(CC2CN=C(N)N=C2N)ccc1OC (stereo unspecified)
18.2 nM	COc1c(C)cc(CC2CN=C(N)N=C2N)cc1C (stereo unspecified)
6.61 nM	COc1cc(CC2CN=C(N)N=C2N)cc(OC)c1Br (stereo unspecified)
28.8 nM	COc1cc(CC2CN=C(N)N=C2N)ccc1O (stereo unspecified)

Further lines, the compound ahead of its results:

Structure (SMILES)	Ki
COc1cc(CC2CN=C(N)N=C2N)ccc1Cc1ccccc1 (stereo unspecified)	29.5 nM
NC1=NCC(Cc2ccc(O)cc2)C(N)=N1 (stereo unspecified)	355 nM
Cc1cc(CC2CN=C(N)N=C2N)cc(Cl)c1N (stereo unspecified)	1.35 nM
NC1=NCC(Cc2cc(I)c(O)c(I)c2)C(N)=N1 (stereo unspecified)	1.51 nM
COCCCCCCCOc1c(OC)cc(CC2CN=C(N)N=C2N)cc1OC (stereo unspecified)	63.1 nM
CCc1cc(CC2CN=C(N)N=C2N)cc(CC)c1CC (stereo unspecified)	15.1 nM
COCCC(=O)c1ccc(CC2CN=C(N)N=C2N)cc1C(=O)CCOC (stereo unspecified)	60.3 nM
CCCCCCCCOc1c(OC)cc(CC2CN=C(N)N=C2N)cc1OC (stereo unspecified)	13.5 nM
Cc1cc(CC2CN=C(N)N=C2N)cc(C)c1O (stereo unspecified)	27.5 nM
NC1=NCC(Cc2cc(Br)c(N)c(Br)c2)C(N)=N1 (stereo unspecified)	1.41 nM
NC1=NCC(Cc2ccc([N+](=O)[O-])cc2)C(N)=N1 (stereo unspecified)	631 nM
COc1ccc(CC2CN=C(N)N=C2N)cc1OCc1ccccc1 (stereo unspecified)	21.9 nM
COc1cc(CC2CN=C(N)N=C2N)cc(OC)c1OCc1ccccc1 (stereo unspecified)	3.8 nM
NC1=NCC(Cc2ccc3c(c2)OCCO3)C(N)=N1 (stereo unspecified)	74.1 nM
NC1=NCC(Cc2cc(Cl)c(N)c(Cl)c2)C(N)=N1 (stereo unspecified)	1.35 nM
CCCOc1cc(CC2CN=C(N)N=C2N)cc(OCCC)c1 (stereo unspecified)	38.9 nM
NC1=NCC(Cc2ccc(OCc3ccccc3)cc2)C(N)=N1 (stereo unspecified)	129 nM
CCCCCCOc1cccc(CC2CN=C(N)N=C2N)c1 (stereo unspecified)	138 nM
COc1c(I)cc(CC2CN=C(N)N=C2N)cc1I (stereo unspecified)	1.51 nM
NC1=NCC(Cc2ccc(OC(F)(F)F)cc2)C(N)=N1 (stereo unspecified)	269 nM
Cc1cc(C)cc(CC2CN=C(N)N=C2N)c1 (stereo unspecified)	91.2 nM
CCCCCCOc1c(OC)cc(CC2CN=C(N)N=C2N)cc1OC (stereo unspecified)	13.5 nM
